Data as given in PubChem BioAssay (NCI).
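Following 48 hours of exposure in 96-well plates, responses at five concentrations were used to interpolate endpoints linearly. At the GI50, growth is halved. Definition used: TGI = concentration required for complete inhibition of growth.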

What was measured:
Assay in all cases: NCI tumour cell line growth inhibition, 48 h
A498 renal = test system: A498 renal
DU-145 prostate = test system: DU-145 prostate
K-562 leukemia = test system: K-562 leukemia
LOX IMVI melanoma = test system: LOX IMVI melanoma
MOLT-4 leukemia = test system: MOLT-4 leukemia
NCI-H460 lung = test system: NCI-H460 lung
SK-MEL-2 melanoma = test system: SK-MEL-2 melanoma
SR leukemia = test system: SR leukemia
UO-31 renal = test system: UO-31 renal
HOP-92 NSCLC = test system: HOP-92 NSCLC

Structure (SMILES) | GI50 (A498 renal) [µM] | TGI (A498 renal) [µM] | GI50 (DU-145 prostate) [µM] | TGI (DU-145 prostate) [µM] | GI50 (K-562 leukemia) [µM] | TGI (K-562 leukemia) [µM] | GI50 (LOX IMVI melanoma) [µM] | TGI (LOX IMVI melanoma) [µM] | GI50 (MOLT-4 leukemia) [µM] | TGI (MOLT-4 leukemia) [µM] | GI50 (NCI-H460 lung) [µM] | TGI (NCI-H460 lung) [µM] | GI50 (SK-MEL-2 melanoma) [µM] | TGI (SK-MEL-2 melanoma) [µM] | GI50 (SR leukemia) [µM] | TGI (SR leukemia) [µM] | GI50 (UO-31 renal) [µM] | TGI (UO-31 renal) [µM] | GI50 (HOP-92 NSCLC) [µM] | TGI (HOP-92 NSCLC) [µM]
COc1cc(C)ccc1C(=O)c1ccc(C)cc1OC | 1.24 | 39.6 | 3.45 | 83.6 | 0.619 | > 100 | 7.88 | > 100 | 7.66 | > 100 | 3.39 | > 100 | 2.45 | > 100 | 0.567 | > 100 | 5.74 | > 100 | – | –
C=C1CCC2C3(C)COC(C)(C)OC3CCC2(C)C1C/C=C1/C(=O)OCC1OC(C)=O (centres undefined) | 16.6 | 31.5 | 4.28 | 14 | 2.85 | 23.2 | 0.704 | 2.46 | 3.53 | 14.3 | 5.24 | 17.7 | 3.52 | 15.6 | 2.37 | 9.03 | 6.27 | 15.5 | 10.8 | 24.2
CC(=O)c1c(C(F)(F)F)n([O-])c2ccccc2[n+]1=O | 1.56 | 4.48 | – | – | 1.26 | > 100 | 1.31 | 4.58 | 0.613 | > 100 | 0.857 | 10.8 | 4.56 | > 100 | 0.167 | 2.3 | 2.69 | 12.1 | 1.22 | 4.35
CNC(=S)Nc1ccc(OC)c2ccccc12 | – | – | – | > 10 | – | > 10 | – | > 10 | – | > 10 | – | – | – | – | – | > 10 | – | – | – | > 10
IC[P+]1(c2ccccc2)CCCC1 | – | 88.6 | – | – | – | > 100 | – | > 100 | – | > 100 | – | 76.9 | – | > 100 | – | > 100 | – | > 100 | – | –
O=c1ncccn1[C@@H]1O[C@H](CO)[C@H](O)C1O (some centres undefined) | – | > 100 | – | – | – | > 100 | – | > 100 | – | > 100 | – | > 100 | – | > 100 | – | > 100 | – | > 100 | – | > 100
CO/N=C(\COc1ccc2c(c1)[nH]c1ccccc12)c1ccc(OC)cc1 | 19.2 | 46 | > 100 | > 100 | 31 | > 100 | 19.6 | > 100 | 27.9 | > 100 | 21.8 | > 100 | – | – | 71.6 | > 100 | > 100 | > 100 | 11.9 | > 100
C=C(c1ccccc1)C1(O)CCCCC1N (centres undefined) | – | > 100 | – | – | – | > 100 | – | > 100 | – | > 100 | – | > 100 | – | > 100 | – | 72.8 | – | > 100 | – | > 100
CCOC(=O)NC(=O)c1cn(CCN2CCN(C(=O)NCCCCCCNC(=O)N3CCN(CCn4cc(C(=O)NC(=O)OCC)c(=O)[nH]c4=O)CC3)CC2)c(=O)[nH]c1=O | – | > 100 | – | – | – | > 100 | – | > 100 | – | – | – | > 100 | – | > 100 | – | > 100 | – | > 100 | – | > 100
Cc1c(OC(C)C(=O)O)ccc2c(-c3ccccc3)cc(=O)oc12 (centres undefined) | – | > 100 | – | – | – | > 100 | – | > 100 | – | > 100 | – | > 100 | – | – | – | > 100 | – | > 100 | – | > 100
CC(=O)OCc1c2ccccc2c(C)c2c1cc(F)c1ccccc12 | – | > 100 | – | – | – | 78.9 | – | 46.3 | – | 32.6 | – | – | – | 35.2 | – | > 100 | – | > 100 | – | > 100
CC(=O)Nc1ccc(-c2cc(C(=O)O)c3cc4ccccc4cc3n2)cc1 | – | > 100 | – | > 100 | – | > 100 | – | > 100 | – | > 100 | – | > 100 | – | > 100 | – | > 100 | – | – | – | > 100
Cn1ccnc1CCc1c(Cl)cccc1Cl | – | > 100 | – | – | – | > 100 | – | > 100 | – | > 100 | – | > 100 | – | > 100 | – | > 100 | – | > 100 | – | > 100
O=C1C2C3C=C4c5ccccc5N(c5ccccc5)C4(C2C(=O)N1c1ccccc1)C1C(=O)N(c2ccccc2)C(=O)C31 (centres undefined) | – | 5.13 | – | – | – | > 100 | – | > 100 | – | > 100 | – | > 100 | – | > 100 | – | > 100 | – | > 100 | – | 6.29
N#C[Se]Cc1cc(-c2ccccc2)n(-c2ccc(S(N)(=O)=O)cc2)n1 | – | – | 0.735 | 2 | 1.15 | 9.88 | 0.171 | 0.324 | 0.433 | 4.36 | 0.264 | 0.743 | 2.32 | 5.6 | 1.37 | 6.13 | 1.49 | 5.96 | 2.1 | 4.61
C/C(=N/O)c1cccc(Nc2cc(-n3nnc4ccccc43)nc3ccccc23)c1 | 25 | 55.8 | 11.6 | 41.3 | 5.91 | 82.1 | 24.2 | 93 | 4.05 | > 40 | 14.7 | 46.7 | 28 | > 63.2 | 15 | 35.2 | 25 | > 100 | – | –
CC1=C(C(=O)Nc2ccccc2C)C(c2ccc(Cl)cc2)C(C(=O)Nc2ccccc2C)=C(C)N1 | – | – | – | – | – | > 100 | – | > 100 | – | > 100 | – | > 100 | – | > 100 | – | > 100 | – | > 100 | – | > 100
COc1cc(/C=C/C(=O)/C=C/c2cc(OC)c3c(c2)OCO3)cc2c1OCO2 | > 100 | > 100 | 18.4 | > 100 | 22.9 | > 100 | 1.89 | 4.35 | 9 | > 100 | > 100 | > 100 | > 100 | > 100 | – | – | 5.77 | > 100 | 58.5 | > 100
